Laboratory results: patent US20080076711A1, “Therapeutic agents for osteopenia” (Chugai Seiyaku Kabushiki Kaisha, priority 2001, published 2008)

Assays:
[1] = test system: OPN knockout (OPN-KO) mice; experiment: BFR and MAR in cortical bone (femoral mid-diaphysis) after PTH treatment, OPN-KO mice; format: in vivo, mouse
Description: In the case of cortical bone, decalcified horizontal sections (serial sections of 3 μm thickness) were prepared from the femoral mid-diaphysis and analyzed for BFR and MAR in the periosteal and endosteal regions. More specifically, a calcium chelator calcein (4 mg/kg of body weight) was subcutaneously administered 9 days and 2 days before sampling and the interval between two labeled bands was determined under a fluorescence microscope to calculate BFR and MAR.
BFR denotes bone formation rate per unit trabecular area (μm^3/μm^2/day).
MAR denotes the rate of increase in the distance between labeled calcified bands (μm/day).
(§1) To create an animal model in which the in vivo effects of OPN were inhibited, strain 129 female mice at 7 weeks of age were modified into knockout mice deficient in the OPN gene (OPN-KO mice), as described in Rittling et al. J. Bone Miner. Res., 13: 1101-1111, 1998. These mice were singly used for PTH treatment test. They were divided into groups of 6 mice each.
(§2) Recombinant human PTH(1-34) (Bachem, Torrance, Calif.) was dissolved in acidified physiological saline supplemented with 0.1% bovine serum albumin (Sigma Chemical Co.-Aldrich, St. Louis, Mo.). The OPN-KO mice were subcutaneously administered with 80 μg/kg of body weight human PTH(1-34) for 4 weeks on a five-days-a-week basis. Mice in the control group were administered with physiological saline alone.

[2] = test system: wild-type strain 129 female mice; experiment: BFR and MAR in cancellous bone (distal end of femur) after PTH treatment, wild-type mice; format: in vivo, mouse; details: WT mice
Description: BFR denotes bone formation rate per unit trabecular area (μm^3/μm^2/day). MAR denotes the rate of increase in the distance between labeled calcified bands (μm/day). In the case of cancellous bone, decalcified sagittal sections were prepared from the metaphyseal region and analyzed for BFR and MAR in a 1.4 mm^2 square area located 0.2 mm apart from the growth plate of the distal end of femur. Labeling was accomplished by subcutaneous administration of xylenol orange (100 mg/kg of body weight) 4 days before and calcein 2 days before sampling. Recombinant human PTH(1-34) (Bachem, Torrance, Calif.) was dissolved in acidified physiological saline supplemented with 0.1% bovine serum albumin (Sigma Chemical Co.-Aldrich, St. Louis, Mo.). The OPN-KO mice were subcutaneously administered with 80 μg/kg of body weight human PTH(1-34) for 4 weeks on a five-days-a-week basis. Mice in the control group were administered with physiological saline alone. The effect of PTH on bone metabolism was also examined in the same manner as shown in Example 1, using wild-type strain 129 female mice (7 weeks of age). These mice were divided into groups of 6 mice each.

[3] = test system: wild-type strain 129 female mice; experiment: BFR and MAR in cortical bone (femoral mid-diaphysis) after PTH treatment, wild-type mice; format: in vivo, mouse; details: WT mice
Description: In the case of cortical bone, decalcified horizontal sections (serial sections of 3 μm thickness) were prepared from the femoral mid-diaphysis and analyzed for BFR and MAR in the periosteal and endosteal regions. More specifically, a calcium chelator calcein (4 mg/kg of body weight) was subcutaneously administered 9 days and 2 days before sampling and the interval between two labeled bands was determined under a fluorescence microscope to calculate BFR and MAR. BFR denotes bone formation rate per unit trabecular area (μm^3/μm^2/day). MAR denotes the rate of increase in the distance between labeled calcified bands (μm/day). Recombinant human PTH(1-34) (Bachem, Torrance, Calif.) was dissolved in acidified physiological saline supplemented with 0.1% bovine serum albumin (Sigma Chemical Co.-Aldrich, St. Louis, Mo.). The OPN-KO mice were subcutaneously administered with 80 μg/kg of body weight human PTH(1-34) for 4 weeks on a five-days-a-week basis. Mice in the control group were administered with physiological saline alone. The effect of PTH on bone metabolism was also examined in the same manner as shown in Example 1, using wild-type strain 129 female mice (7 weeks of age). These mice were divided into groups of 6 mice each.

[4] = test system: wild-type strain 129 female mice; experiment: Determination of TRAP-positive cells (osteoclasts) after PTH treatment, wild-type mice; format: in vivo, mouse; details: WT mice, PTH(+) group, 80 μg/kg s.c., 4 weeks
Description: After treatment with PTH, forefoot bone was excised from each animal. Each bone was rinsed with PBS, fixed for 7 days in 4% paraformaldehyde acid and decalcified for 3 days in 10% EDTA (pH 7.4), followed by dehydration and embedding in paraffin. Serial sections of 7 μm thickness were prepared from paraffin blocks and stained to measure TRAP (tartrate resistant acid phosphatase) activity, with Alcian blue for counter-staining. Among TRAP-positive cells attached to cancellous bone, those having at least three nuclei were counted using 15 serial sections of 7 μm thickness prepared from each bone. Each of the 15 sections was taken at five-section intervals from a total of 75 sections per bone. The number of multinucleated TRAP-positive cells in all 15 sections was summed to give the total number of osteoclasts per unit trabecular perimeter. Recombinant human PTH(1-34) (Bachem, Torrance, Calif.) was dissolved in acidified physiological saline supplemented with 0.1% bovine serum albumin (Sigma Chemical Co.-Aldrich, St. Louis, Mo.). The OPN-KO mice were subcutaneously administered with 80 μg/kg of body weight human PTH(1-34) for 4 weeks on a five-days-a-week basis. Mice in the control group were administered with physiological saline alone. The effect of PTH on bone metabolism was also examined in the same manner as shown in Example 1, using wild-type strain 129 female mice (7 weeks of age). […]

[5] = test system: OPN knockout (OPN-KO) mice; experiment: Determination of cortical bone thickness and area after PTH treatment, OPN-KO mice; format: in vivo, mouse; details: PTH(+) group, 80 μg/kg s.c., 4 weeks, femoral mid-diaphysis
Description: Horizontal sections were prepared from the femoral mid-diaphysis and tomographed using an X-ray microtomograph Musashi (Nittetsu-ELEX, Osaka, Japan). A Luzex-F automated image analysis system (Nireco, Tokyo, Japan) was then used for analysis of the image data to determine the thickness and area of cortical bone. The thickness was evaluated at the mean value averaged over 8 measurements every 45°.
as §1, §2

[6] = test system: postmenopausal patients with osteoporosis; details: 100 μg/day once-daily subcutaneous injections for 6 months; cited from earlier work
[7] = PTH(+) group, 80 μg/kg s.c., 4 weeks
[8] = PTH(+) vs PTH(−) group, significant inhibition of bone formation (p<0.05)

human PTH(1-34)
endosteal BFR, cortical bone [1, 7]: 0.62±0.09 μm^3/μm^2/day | endosteal MAR, cortical bone [1, 7]: 1.33±0.28 μm/day | periosteal BFR (bone formation rate), cortical bone [1, 7]: 2.38±0.18 μm^3/μm^2/day | periosteal MAR (mineral apposition rate), cortical bone [1, 7]: 2.97±0.25 μm/day | effect of PTH treatment on endosteal BFR and MAR ([1]; PTH(+) vs PTH(−) group): little effect | fold increase in periosteal BFR by PTH treatment ([1]; PTH(+) vs PTH(−) group, p<0.05): ~1.8 fold | fold increase in periosteal MAR by PTH treatment ([1]; PTH(+) vs PTH(−) group, p<0.05): ~1.2 fold | BFR in cancellous bone [2, 7]: 1.85±0.08 μm^3/μm^2/day | MAR in cancellous bone [2, 7]: 4.84±0.21 μm/day | fold increase in cancellous BFR by PTH treatment ([2]; PTH(+) vs PTH(−) group, p<0.05): about 1.4 fold | fold increase in cancellous MAR by PTH treatment ([2]; PTH(+) vs PTH(−) group, p<0.05): ~1.3 fold | endosteal BFR, cortical bone [3, 7]: 1.37±0.18 μm^3/μm^2/day | endosteal MAR, cortical bone [3, 7]: 2.44±0.29 μm/day | periosteal BFR, cortical bone [3, 7]: 1.07±0.08 μm^3/μ^2/day | periosteal MAR, cortical bone [3, 7]: 2.05±0.21 μm/day | fold increase in endosteal BFR by PTH treatment ([3]; PTH(+) vs PTH(−) group, p<0.05): about 1.8 fold | fold increase in endosteal MAR by PTH treatment ([3]; PTH(+) vs PTH(−) group, p<0.05): ~1.5 fold | fold increase in periosteal BFR by PTH treatment [3, 8]: ~0.6 fold | fold increase in periosteal MAR by PTH treatment [3, 8]: ~0.7 fold | number of osteoclasts per unit trabecular perimeter of cancellous bone trabeculae [4]: 9.2±1.8 cells/mm | area of cortical bone [5]: 0.88±0.13 mm^2 | thickness of cortical bone [5]: 0.26±0.04 mm | calcium balance [6]: restored normal calcium balance | cancellous bone mass [6]: increased cancellous bone mass
